# Assay results from patent US9593376B2, “Natural killer p30 (NKp30) dysfunction and the biological applications thereof” (INSTITUT GUSTAVE ROUSSY, priority 2008, dated 2017).
# Counter-ions that a name gives are not always drawn.
# Tests used:
# [1] = test system: alternative splicing of NCR3 gene (NKp30 SHORT, INTER, LONG isoforms) in NK92 cells; test: Modulation of alternative splicing of NCR3 gene in NK92 cells (RT-PCR of NKp30 isoform proportions); format: cell-based, human; details: 2 μM with IL-2 (50 UI/ml), 36 h at 37° C., FIG. 14B
# Description: (§1) FIG. 14. Modulation of alternative splicing of NCR3 gene with histone deacetylase inhibitors and DNA methyltransferase inhibitors (part A of experimental section)
# (§2) NKp30 isoform proportions are shown as the ratio of the sum of WT—(variable Ig-like) and DEL—(constant Ig-like) extracellular domain relative quantities of each isoform (SHORT-, INTER- and LONG-tail isoforms) and the total quantity of the six isoforms.
# (B) NK92 cells were seeded (5.10^5 NK/well) in 96 wells plates and incubated with 5-azacitidine (2 μM) (5AZA) and IL-2 (50 Ul/ml) for 36 h at 37° C.
# (§3) Total cellular RNA was isolated from PBMC and NK cell lines with the RNeasy kit (Qiagen). First strand cDNA was synthesized from 5 μg of total RNA using SuperScript™ II Reverse Transcriptase and random primers (Promega) according to Invitrogen's instructions.
# (§4) Modulation of NCR3 Alternative Splicing by HDAC and Demethylating Agents.
# NK92 cells were seeded (5.10^5 NK/well) in 96 wells plates and incubated with 5-azacitidine (2 μM) and IL-2 (50 Ul/ml) for 36 h at 37° C.
# (§5) Several approaches modulating alternative splicing may be used to operate a switch from NKp30 INTER^Low/SHORT^High/LONG^High (identified as profile B following the first results obtained in the present study (part A.)) towards NKp30 INTER^High/SHORT^Low/LONG^Low (identified as profile A following the first results obtained in the present study (part A.)). […]
# [2] = test system: NKp30 transcriptional profile (PBMC of GIST patients); test: NKp30 transcriptional profile stability in GIST patients during the course of imatinib mesylate treatment; format: in vivo, human; details: GIST therapy, spanning several years in some cases, four patients, FIG. 4
# From the text: FIG. 4. Representation of NKp30 transcriptional profile intra-individual stability in four GIST patients during the course of treatment
# NKP30 transcriptional profile. NKp30 isoform proportions are shown as the ratio of the relative quantities of each isoform and the total quantity of the six isoforms. For each patient, the numbers in brackets represent the time post-treatment in months.
# as §3
# For the “GIST patients and Healthy Volunteers” cohort, real time quantitative PCR amplifications were conducted using FastStart DNA Master SYBRGreen I Mix according to the manufacturer's instructions, with 0.3 μM primers, 2 mM MgCl2 and cDNAs, in a 20 μl final reaction volume. Thermocycling was performed using a LightCycler (Roche Molecular System) initiated by 10 min incubation at 95° C., followed by 38 cycles (95° C., 1 s; 65° C., 10 s; 72° C., 20 s). NKp30 mRNA expression level was normalized by dividing its relative mRNA amount with the corresponding GAPDH mRNA amount.
# [3] = test system: alternative splicing of NCR3 gene (NKp30 SHORT, INTER, LONG isoforms) in YTS cells; test: Modulation of alternative splicing of NCR3 gene in YTS cells (RT-PCR of NKp30 isoform proportions); format: cell-based, human; details: 100 nM, 45 h at 37° C., FIG. 14A
# Description: as §1, §2
# (A) YTS cells were seeded (5.10^5 NK/well) in 96 wells plates and incubated with trichostatine A (100 nM) (TSA) for 45 h at 37° C.
# as §3, §4
# YTS cells were seeded (5.10^5 NK/well) in 96 wells plates and incubated with trichostatine A (100 nM) for 45 h at 37° C.
# as §5
# [4] = test system: wild-type NCR3 gene splicing (NKp30 isoforms); test: Modulation of wild-type NCR3 gene splicing by antisense oligonucleotides; details: SEQ ID NO: 49-51 used in combination; no experiment described
compound,measurement,setting,value
Nc1ncn([C@@H]2O[C@H](CO)[C@@H](O)[C@H]2O)c(=O)n1 [5-azacitidine],"Proportions of NKp30 INTER, SHORT and LONG isoforms",[1],significant over-representation of INTER isoforms associated with an under-representation of SHORT and LONG isoforms
Cc1ccc(NC(=O)c2ccc(CN3CCN(C)CC3)cc2)cc1Nc1nccc(-c2cccnc2)n1 [imatinib mesylate],Modulation of the pattern of NKp30 expression overtime,[2],did not appear to modulate the pattern of NKp30 expression overtime
CC(/C=C/C(=O)NO)=C\[C@@H](C)C(=O)c1ccc(N(C)C)cc1 [trichostatin A],"Proportions of NKp30 INTER, SHORT and LONG isoforms",[3],significant over-representation of INTER isoforms associated with an under-representation of SHORT and LONG isoforms
"antisense oligonucleotides corresponding to SEQ ID NO: 49-51: three antisense oligonucleotides used in combination: target polyadenylation signal 1, polyadenylation site 1, and INTER blocking (antisense 1 GGGGCAGATTTATTGGGGTC; antisense 2 CTCATGAGGAGTTAGTGGT; antisense 3 GTGACAGTGGCCTGGTCAGA; listed as DNA, chemistry not given here)","Representation of NKp30 INTER, SHORT and LONG isoforms compared to reference or mean values",[4],significant (relative) under-representation of NKp30 INTER isoforms associated with a relative over-representation of NKp30 SHORT and LONG isoforms
